Measured values from PubChem BioAssay (NCI).
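Briefly, cells in 96-well plates were exposed to five compound concentrations for 48 h, and endpoints were estimated by linear interpolation. The concentration for full growth arrest is given as TGI.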

Key:
Test in all cases: NCI tumour cell line growth inhibition, 48 h
[1] = tested on: OVCAR-8 ovarian
[2] = tested on: SF-295 CNS
[3] = tested on: HL-60(TB) leukemia
[4] = tested on: NCI-H522 lung
[5] = tested on: HT29 colon
[6] = tested on: OVCAR-4 ovarian
[7] = tested on: SF-539 CNS
[8] = tested on: CCRF-CEM leukemia
[9] = tested on: CAKI-1 renal
[10] = tested on: OVCAR-5 ovarian
[11] = tested on: RPMI-8226 leukemia
[12] = tested on: K-562 leukemia
[13] = tested on: SW-620 colon
[14] = tested on: RXF 393 renal
[15] = tested on: MOLT-4 leukemia
[16] = tested on: NCI/ADR-RES ovarian
[17] = tested on: SK-MEL-5 melanoma
[18] = tested on: UO-31 renal
[19] = tested on: SNB-19 CNS
[20] = tested on: SNB-75 CNS
[21] = tested on: UACC-62 melanoma
[22] = tested on: PC-3 prostate
[23] = tested on: HCT-116 colon
[24] = tested on: T-47D breast
[25] = tested on: SR leukemia
[26] = tested on: ACHN renal
[27] = tested on: SK-OV-3 ovarian
[28] = tested on: SK-MEL-28 melanoma
[29] = tested on: LOX IMVI melanoma
[30] = tested on: EKVX NSCLC
[31] = tested on: HOP-62 NSCLC
[32] = tested on: BT-549 breast
[33] = tested on: NCI-H23 lung
[34] = tested on: U251 CNS
[35] = tested on: MDA-N
[36] = tested on: OVCAR-3 ovarian
[37] = tested on: HCT-15 colon
[38] = tested on: HCC-2998 colon
[39] = tested on: MCF7 breast
[40] = tested on: SF-268 CNS
[41] = tested on: NCI-H226 lung
[42] = tested on: NCI-H460 lung
[43] = tested on: TK-10 renal
[44] = tested on: HS 578T breast
[45] = tested on: MDA-MB-435
[46] = tested on: A498 renal
[47] = tested on: DU-145 prostate
[48] = tested on: IGROV1 ovarian
[49] = tested on: KM12 colon
[50] = tested on: UACC-257 melanoma
[51] = tested on: SK-MEL-2 melanoma
[52] = tested on: A549 NSCLC
[53] = tested on: M14 melanoma
[54] = tested on: MDA-MB-231 breast
[55] = tested on: COLO 205 colon
[56] = tested on: MALME-3M melanoma
[57] = tested on: 786-0 renal
[58] = tested on: SN12C renal
[59] = tested on: HOP-92 NSCLC

Nc1c(-c2ccccc2)c2ccc([N+](=O)[O-])cc2c(=O)n1-c1cccc(C(=O)O)c1 was tested, and the TGI [1] was over 100 µM, the TGI [2] was over 100 µM and the TGI [3] was over 100 µM. For the same molecule, the TGI [4] was over 100 µM, the TGI [5] was over 100 µM and the TGI [6] was over 100 µM. For the same molecule, the TGI [7] was over 100 µM, the TGI [8] was over 100 µM and the TGI [9] was over 100 µM. It also gave a TGI [10] of over 100 µM, a TGI [11] of over 100 µM and a TGI [12] of over 100 µM. It also gave a TGI [13] of over 100 µM, a TGI [14] of over 100 µM and a TGI [15] of over 100 µM. For the same molecule, the TGI [16] was over 100 µM, the TGI [17] was over 100 µM and the TGI [18] was over 100 µM. It also gave a TGI [19] of over 100 µM, a TGI [20] of over 100 µM and a TGI [21] of over 100 µM. For the same molecule, the TGI [22] was over 100 µM, the TGI [23] was over 100 µM and the TGI [24] was over 100 µM. It also gave a TGI [25] of over 100 µM, a TGI [26] of over 100 µM and a TGI [27] of over 100 µM. The TGI [28] was over 100 µM, the TGI [29] was over 100 µM and the TGI [30] was over 100 µM. For the same molecule, the TGI [31] was over 100 µM, the TGI [32] was over 100 µM and the TGI [33] was over 100 µM. For the same molecule, the TGI [34] was over 100 µM, the TGI [35] was over 100 µM and the TGI [36] was over 100 µM. The TGI [37] was over 100 µM, the TGI [38] was over 100 µM and the TGI [39] was over 100 µM. For the same molecule, the TGI [40] was over 100 µM, the TGI [41] was over 100 µM and the TGI [42] was over 100 µM. It also gave a TGI [43] of over 100 µM, a TGI [44] of over 100 µM and a TGI [45] of over 100 µM. For the same molecule, the TGI [46] was over 100 µM, the TGI [47] was over 100 µM and the TGI [48] was over 100 µM. The TGI [49] was over 100 µM, the TGI [50] was over 100 µM and the TGI [51] was over 100 µM. For the same molecule, the TGI [52] was over 100 µM, the TGI [53] was over 100 µM and the TGI [54] was over 100 µM.

With CN1CCN(Cc2ccc(C(=S)Nc3ccccc3)s2)CC1 the TGI [1] was over 100 µM, the TGI [2] was over 100 µM and the TGI [3] was over 100 µM. The TGI [4] was over 100 µM, the TGI [5] was 47.1 µM and the TGI [6] was over 100 µM. It also gave a TGI [7] of over 100 µM, a TGI [8] of over 100 µM and a TGI [9] of over 100 µM. It also gave a TGI [10] of over 100 µM, a TGI [11] of over 100 µM and a TGI [12] of 95.9 µM. The TGI [13] was over 100 µM, the TGI [15] was over 100 µM and the TGI [16] was over 100 µM. For the same molecule, the TGI [17] was 34.1 µM, the TGI [18] was over 100 µM and the TGI [19] was over 100 µM. It also gave a TGI [55] of 45.9 µM, a TGI [21] of 41.3 µM and a TGI [22] of over 100 µM. The TGI [23] was over 100 µM, the TGI [24] was over 100 µM and the TGI [25] was 73 µM. The TGI [26] was over 100 µM, the TGI [27] was over 100 µM and the TGI [28] was 36.1 µM. It also gave a TGI [29] of 31.9 µM, a TGI [30] of over 100 µM and a TGI [31] of over 100 µM. The TGI [32] was 76.3 µM, the TGI [33] was 61.8 µM and the TGI [34] was over 100 µM. The TGI [35] was over 100 µM, the TGI [36] was over 100 µM and the TGI [37] was 55.4 µM. For the same molecule, the TGI [38] was over 100 µM, the TGI [39] was over 100 µM and the TGI [40] was over 100 µM. It also gave a TGI [56] of over 100 µM, a TGI [42] of over 100 µM and a TGI [44] of over 100 µM. It also gave a TGI [45] of over 100 µM, a TGI [46] of over 100 µM and a TGI [47] of over 100 µM. The TGI [48] was 75.8 µM, the TGI [57] was over 100 µM and the TGI [49] was over 100 µM. It also gave a TGI [50] of over 100 µM, a TGI [51] of over 100 µM and a TGI [52] of over 100 µM. The TGI [53] was 31.9 µM.

CN(Cc1ccccc1)C(=S)S showed a TGI [1] of over 100 µM, a TGI [58] of over 100 µM and a TGI [2] of over 100 µM. For the same molecule, the TGI [3] was 59.1 µM, the TGI [4] was over 100 µM and the TGI [5] was over 100 µM. For the same molecule, the TGI [6] was over 100 µM, the TGI [8] was 49.2 µM and the TGI [9] was over 100 µM. For the same molecule, the TGI [10] was over 100 µM, the TGI [12] was over 100 µM and the TGI [13] was over 100 µM. It also gave a TGI [14] of over 100 µM, a TGI [15] of 84.6 µM and a TGI [16] of over 100 µM. The TGI [17] was over 100 µM, the TGI [18] was 77.8 µM and the TGI [20] was over 100 µM. For the same molecule, the TGI [55] was over 100 µM, the TGI [21] was over 100 µM and the TGI [23] was 39.6 µM. It also gave a TGI [24] of over 100 µM, a TGI [25] of 59.7 µM and a TGI [26] of over 100 µM. It also gave a TGI [27] of over 100 µM, a TGI [28] of over 100 µM and a TGI [29] of over 100 µM. The TGI [30] was over 100 µM, the TGI [31] was over 100 µM and the TGI [32] was over 100 µM. For the same molecule, the TGI [33] was over 100 µM, the TGI [34] was over 100 µM and the TGI [35] was over 100 µM. The TGI [36] was over 100 µM, the TGI [37] was over 100 µM and the TGI [38] was over 100 µM. The TGI [39] was over 100 µM, the TGI [40] was over 100 µM and the TGI [41] was over 100 µM. It also gave a TGI [56] of over 100 µM, a TGI [42] of over 100 µM and a TGI [44] of over 100 µM. For the same molecule, the TGI [59] was over 100 µM, the TGI [45] was over 100 µM and the TGI [46] was over 100 µM. The TGI [47] was over 100 µM, the TGI [48] was over 100 µM and the TGI [57] was 40.7 µM. The TGI [49] was over 100 µM, the TGI [50] was over 100 µM and the TGI [51] was over 100 µM. The TGI [52] was over 100 µM, the TGI [53] was 72.6 µM and the TGI [54] was over 100 µM.

CCOC(=O)CC1(N)CC2c3ccccc3OC(=O)C2C(=O)N1 (centres undefined) showed a TGI [1] of over 100 µM, a TGI [58] of over 100 µM and a TGI [3] of over 100 µM. It also gave a TGI [4] of over 100 µM, a TGI [5] of over 100 µM and a TGI [6] of over 100 µM. The TGI [8] was over 100 µM, the TGI [9] was over 100 µM and the TGI [10] was over 100 µM. It also gave a TGI [11] of over 100 µM, a TGI [12] of over 100 µM and a TGI [13] of over 100 µM. For the same molecule, the TGI [14] was over 100 µM, the TGI [15] was over 100 µM and the TGI [16] was over 100 µM. The TGI [18] was over 100 µM, the TGI [19] was over 100 µM and the TGI [20] was over 100 µM. For the same molecule, the TGI [55] was over 100 µM, the TGI [21] was over 100 µM and the TGI [22] was over 100 µM. The TGI [23] was over 100 µM, the TGI [24] was over 100 µM and the TGI [25] was over 100 µM. The TGI [26] was over 100 µM, the TGI [28] was over 100 µM and the TGI [29] was over 100 µM. The TGI [30] was over 100 µM, the TGI [31] was over 100 µM and the TGI [32] was over 100 µM. For the same molecule, the TGI [33] was over 100 µM, the TGI [34] was over 100 µM and the TGI [35] was over 100 µM. It also gave a TGI [36] of over 100 µM, a TGI [37] of over 100 µM and a TGI [38] of over 100 µM. For the same molecule, the TGI [40] was over 100 µM, the TGI [41] was over 100 µM and the TGI [56] was over 100 µM. The TGI [42] was over 100 µM, the TGI [43] was over 100 µM and the TGI [44] was over 100 µM. For the same molecule, the TGI [59] was over 100 µM, the TGI [45] was over 100 µM and the TGI [46] was over 100 µM. For the same molecule, the TGI [47] was over 100 µM, the TGI [48] was over 100 µM and the TGI [57] was over 100 µM. For the same molecule, the TGI [49] was over 100 µM, the TGI [50] was over 100 µM and the TGI [51] was over 100 µM. It also gave a TGI [52] of over 100 µM, a TGI [53] of over 100 µM and a TGI [54] of over 100 µM.
